Values after ≈ are worked out from the molar mass of the structure shown. Values joined by “and” are separate entries in the source; they are usually repeats but may differ in a detail not shown here. Equal values may be shown once. Read-outs that look alike come from different tables or passages of the source.
Assays:
[1] = test system: P. aeruginosa (MTCC1934); experiment: Broth microdilution MIC; conditions: for MIC: Pseudomonas aeruginosa, MTCC1934, 18 h, read-out: Minimum inhibitory concentration; for Minimum inhibitory concentration: P. aeruginosa (MTCC1934), 18 h
[2] = test system: E. coli (MTCC739); experiment: Agar well diffusion; conditions: for zone of inhibition at 50 µg/mL: Escherichia coli, MTCC739; for Zone of inhibition: E. coli (MTCC739), 50 µg/ml, ND = Not detected
[3] = test system: M. luteus (MTCC 106); experiment: Agar well diffusion; conditions: for zone of inhibition at 50 µg/mL: Micrococcus luteus, MTCC106
[4] = test system: B. subtilis (MTCC 441); experiment: Agar well diffusion; conditions: for zone of inhibition at 50 µg/mL: Bacillus subtilis, MTCC441; for Zone of inhibition: B. subtilis (MTCC 441), 50 µg/ml, ND = Not detected
[5] = test system: V. cholerae (MTCC 3906); experiment: Broth microdilution MIC; assay type: cell-based, Vibrio cholerae; conditions: for MIC: Vibrio cholerae, MTCC3906, 18 h, read-out: Minimum inhibitory concentration; for Minimum inhibitory concentration: V. cholerae (MTCC 3906), 18 h
[6] = test system: K. pneumoniae (MTCC 618); experiment: Broth microdilution MIC; conditions: for MIC: Klebsiella pneumoniae, MTCC618, 18 h, read-out: Minimum inhibitory concentration; for Minimum inhibitory concentration: K. pneumoniae (MTCC 618), 18 h
[7] = test system: E. coli (MTCC739); experiment: Broth microdilution MIC; conditions: for MIC: Escherichia coli, MTCC739, 18 h, read-out: Minimum inhibitory concentration; for Minimum inhibitory concentration: E. coli (MTCC739), 18 h
[8] = test system: S. aureus (MTCC737); experiment: Broth microdilution MIC; conditions: for Minimum inhibitory concentration: S. aureus (MTCC737), 18 h; for MIC: Staphylococcus aureus, MTCC737, 18 h, read-out: Minimum inhibitory concentration
[9] = test system: V. cholerae (MTCC 3906); experiment: Agar well diffusion; assay type: cell-based, Vibrio cholerae; conditions: for Zone of inhibition: V. cholerae (MTCC 3906), 50 µg/ml, ND = Not detected; for zone of inhibition at 50 µg/mL: Vibrio cholerae, MTCC3906
[10] = test system: K. pneumoniae (MTCC 618); experiment: Agar well diffusion; conditions: 50 µg/ml, ND = Not detected
[11] = test system: MRSA 831; experiment: Broth microdilution MIC; conditions: 18 h; for Minimum inhibitory concentration: MRSA 831; for MIC: Staphylococcus aureus, MRSA, read-out: Minimum inhibitory concentration
[12] = test system: S. aureus (MTCC737); experiment: Agar well diffusion; conditions: for Zone of inhibition: S. aureus (MTCC737), 50 µg/ml, ND = Not detected; for zone of inhibition at 50 µg/mL: Staphylococcus aureus, MTCC737
[13] = test system: MRSA 831; experiment: PI uptake assay; assay type: cell-based, methicillin-resistant S. aureus; conditions: derivatives 100 µg/ml, Polymyxin B 10 μM, 1 h
Protocol: (§1) MTCC 737 and MRSA 831 were grown, washed, and resuspended in 5 mM HEPES (pH 7.2), with the OD600 normalized to 0.5. […] Polymyxin B (10 μM), a membrane destabilizer, was used as a reference control. Drug-free and vehicle controls (cells treated with 0.5% DMSO) were included to analyze changes in fluorescence. After 1 h of treatment, cultures were centrifuged and stained with 5 µM PI dye for 15 min. Following staining, the cultures were washed twice to remove the extra dye, and fluorescence was recorded at 485 nm excitation and 525 nm emission wavelengths ([Zhou et al., 2020]).

[14] = test system: MRSA 831 (MRSA); experiment: Agar well diffusion; conditions: MRSA 831, 50 µg/ml, ND = Not detected; for zone of inhibition at 50 µg/mL: Staphylococcus aureus, MRSA
[15] = test system: P. aeruginosa (MTCC1934); experiment: Agar well diffusion; conditions: for Zone of inhibition: P. aeruginosa (MTCC1934), 50 µg/ml, ND = Not detected; for zone of inhibition at 50 µg/mL: Pseudomonas aeruginosa, MTCC1934
[16] = test system: MRSA 831; experiment: Neutropenic thigh infection model in mice; conditions: neutropenic BALB/c mice, MRSA 831 10^8 CFU/ml, oral 30 mg/kg, after 2 h and 24 h, vs untreated control
[17] = test system: MTCC 737; experiment: Biofilm inhibition assay (crystal violet); conditions: S. aureus; at MIC or higher concentrations
Protocol: After incubation, cells were washed with 1X PBS, and stained with 100 µl of Crystal Violet dye for 15 min, and rinsed again with 1X PBS.

[18] = test system: MTCC 737; experiment: PI uptake assay; assay type: cell-based, Staphylococcus aureus; conditions: derivatives 100 µg/ml, Polymyxin B 10 μM, 1 h
Protocol: as §1

[19] = test system: MRSA 831 persister cells; experiment: Persister killing assay; assay type: cell-based, methicillin-resistant S. aureus; conditions: MRSA persisters; 4-fold MIC
Protocol: To evaluate the persister-killing activity of 2,2’-Bipy derivatives, MTCC 737 and MRSA 831 cells were grown overnight to the stationary phase at 37°C ([Kim et al., 2018b]). […]. The bacterial densities of persisters were recorded at OD600 at hourly intervals from 0 to 6 h.

[20] = Cytotoxicity (MTT assay); assay type: cell-based, murine; conditions: mouse
Protocol: (§2) The murine fibroblast 3T3 L-1 cell line was procured from the National Centre for Cell Science (NCCS), Pune, India. The 3T3 L-1 cells were incubated at 37°C in an incubator maintained at 95% humidity and 5% CO2 in DMEM medium complemented with 10% fetal bovine serum (FBS) and 1% penicillin-streptomycin.
(§3) Synthesized derivatives were evaluated for cytotoxicity in a 3T3-L1 cell line using the MTT assay ([Ernawati et al., 2022]). 8000 cells/well were added in 96-well tissue culture flat-bottom microtiter plates for 24 h and then incubated with synthesized molecules (0-400 µg/ml) for 48 h at 37°C in a CO2 incubator. DMSO was used as solvent at a concentration of 0.1% to ensure that any observed effects were not attributable to the solvent itself, whereas 1 µg/ml doxorubicin was used in toxicity tests as a positive control. Subsequently, the media was replaced with MTT solution (100 µl) diluted in fresh media (0.5 mg/ml), and incubated for 4 h. After incubation, 100 µl of stop solution (50% DMF with 20% SDS) was added to dissolve the formazan crystals, and the plates were further incubated for 1 h. Absorbance was measured at 570 nm using BioTEK Synergy multi-plate reader ([Mosmann, 1983]; [Pratelli et al., 2023]). Percent cell viability was calculated using the following formula:
(§4) Cell viability (%)=Absorbance (Untreated - blank) - Absorbance (Test sample- blank)/Absorbance (Untreated - blank)×100

[21] = test system: MTCC 737; experiment: Transmission electron microscopy; conditions: S. aureus MTCC 737; 100 µg/ml, 12 h
[22] = test system: MTCC 737; experiment: Biofilm imaging by confocal laser scanning microscopy (SYTO 9/PI); conditions: derivatives 100 µg/ml, 24 h
Excerpt: Using SYTO 9 and PI dyes. […] Two independent experiments were done in triplicate.

[23] = test system: MRSA 831; experiment: Transmission electron microscopy; conditions: 100 µg/ml, 12 h
[24] = test system: 3T3-L1 cell line; experiment: Cytotoxicity (MTT assay); assay type: cell-based, murine
Protocol: as §2, §3, §4

[25] = test system: MRSA; set-up: method as in Lee et al., 2017; conditions: ref Lee et al., 2017; cited from earlier work

| Molecule | MIC [1] [µg/mL] | zone of inhibition at 50 µg/mL [2] [mm] | zone of inhibition at 50 µg/mL [3] [mm] | zone of inhibition at 50 µg/mL [4] [mm] | MIC [5] [µg/mL] | MIC [6] [µg/mL] | MIC [7] [µg/mL] | Zone of inhibition [14] | MIC [8] [µg/mL] | zone of inhibition at 50 µg/mL [9] [mm] | MIC [11] [µg/mL] | zone of inhibition at 50 µg/mL [12] [mm] | zone of inhibition at 50 µg/mL [14] [mm] | zone of inhibition at 50 µg/mL [15] [mm] | other results |
| --- | --- | --- | --- | --- | --- | --- | --- | --- | --- | --- | --- | --- | --- | --- | --- |
| CC1(C)S[C@@H]2[C@H](NC(=O)[C@H](N)c3ccccc3)C(=O)N2[C@H]1C(=O)O [Ampicillin, reference compound] | 25 (≈ 71.5 µM) | 4 | 21 | 19.3 ± 0.58 | 25 (≈ 71.5 µM) | > 100 | 6.25 (≈ 17.9 µM) |  |  |  |  |  |  |  |  |
| C=CCOc1cc(C(C)=NO)nc(-c2ccccn2)c1 [NPS1, N-[1-(4-allyloxy[2,2’-bipyridin]-6-yl)ethyldiene]hydroxylamine] |  |  |  |  |  |  |  | 8.67 ± 0.58 mm |  |  |  |  |  |  | Minimum inhibitory concentration [8]: 50 µg/mL (≈ 186 µM); Zone of inhibition [9]: 15.33 ± 1.53 mm; Zone of inhibition [10]: 6.00 ± 3.46 mm; Minimum inhibitory concentration [11]: 50 µg/mL (≈ 186 µM); Minimum inhibitory concentration [1]: >100 µg/mL; Zone of inhibition [2]: 9.33 ± 0.58 mm; Zone of inhibition [12]: 17.00 ± 2.65 mm; Zone of inhibition [4]: 5.33 ± 2.31 mm; Minimum inhibitory concentration [5]: 12.5 µg/mL (≈ 46.4 µM); PI fluorescence (membrane integrity) [13]: exhibited fluorescence indicating membrane instability; Zone of inhibition [15]: 7.67 ± 1.53 mm; Reduction in the bacterial load in thigh tissue [16]: ~ 1.8 log10; Biofilm formation inhibition (in words) [17]: highly effective; Minimum inhibitory concentration [6]: >100 µg/mL; Minimum inhibitory concentration [7]: >100 µg/mL; PI fluorescence (membrane integrity) [18]: exhibited fluorescence indicating membrane instability |
| C#CCOc1cc(C(=NO)c2ccccc2OC)nc(-c2ccccn2)c1 [NPS2, N-[(4-propargyloxy-[2,2’-bipyridin]-6-yl)(2-methoxyphenyl)methylidene] hydroxylamine] | > 100 | 9 | 17 | 8.33 ± 1.15 | 25 (≈ 69.6 µM) | > 100 | > 100 |  | 50 (≈ 139 µM) | 13 ± 1.73 | 50 (≈ 139 µM) | 14 | 9.67 ± 0.58 | 8.33 ± 1.53 |  |
| COc1ccnc(-c2cc(OC)cc(C(=NO)c3ccccc3OC)n2)c1 [NPS3, N-[(4,4’-dimethoxyl[2,2’-bipyridin]-6-yl)(2-methoxyphenyl)methylidene] hydroxylamine] | > 100 |  | 14.7 ± 1.15 | 4.67 ± 1.15 | 25 (≈ 68.4 µM) | > 100 | > 100 |  | 50 (≈ 137 µM) | 12.3 ± 2.52 | 50 (≈ 137 µM) | 13.7 ± 1.15 | 9.67 ± 0.58 | 11.3 ± 1.15 | Effect on persister cell counts [19]: significantly reduced; IC50 at 24 h ([20]; 3T3-L1 fibroblast cells, 3T3L-1 cells, 24 h, read-out: IC50 (cytotoxicity, MTT)): 253 µg/mL; IC50 at 48 h ([20]; 3T3-L1 fibroblast cells, 3T3L-1 cells, 48 h, read-out: IC50 (cytotoxicity, MTT)): 274 µg/mL |
| COc1ccccc1C(=NO)c1cc(C)cc(-c2cc(C)ccn2)n1 [NPS4, N-[(4,4’-dimethyl[2,2’-bipyridin]-6-yl)(2-methoxyphenyl)methylidene] hydroxylamine] | > 100 | 9 ± 1 | 19.3 ± 0.58 | 10 ± 1 | 12.5 (≈ 37.5 µM) | > 100 | > 100 | 14.33 ± 0.58 mm | 50 (≈ 150 µM) | 17.7 ± 3.21 | 50 (≈ 150 µM) | 19 | 14 | 18 ± 1 | Effect on persister cell counts [19]: significantly reduced; IC50 at 24 h [20]: 279 µg/mL; IC50 at 48 h [20]: 240 µg/mL; Cell morphology (TEM) [21]: Significant morphological alterations; Biofilm disruption (CLSM) [22]: significant disruption and damage; Biofilm formation inhibition (in words) [17]: highly effective; Cell morphology (TEM) [23]: Significant morphological alterations |
| CCC(=NO)c1cc(OC)cc(-c2cc(OC)ccn2)n1 [NPS5, N-[1-(4,4’-dimethoxy[2,2’-bipyridin]-6-yl)propyldiene]hydroxylamine] |  |  |  |  |  |  |  | 14 mm and 14.33 ± 0.58 mm |  |  |  |  |  |  | Minimum inhibitory concentration [8]: 50 µg/mL (≈ 174 µM); Zone of inhibition [9]: 17.67 ± 3.21 mm; Zone of inhibition [10]: 13.00 ± 1.00 mm; Minimum inhibitory concentration [11]: 50 µg/mL (≈ 174 µM); Minimum inhibitory concentration [1]: > 100 µg/mL; Zone of inhibition [2]: 9.00 ± 1.00 mm; Zone of inhibition ([3]; M. luteus (MTCC 106), 50 µg/ml, ND = Not detected): 7.33 ± 2.89 mm; Zone of inhibition [12]: 10.00 ± 1.73 mm; Zone of inhibition [4]: 4.00 ± 0.00 mm; Minimum inhibitory concentration [5]: 50 µg/mL (≈ 174 µM); Zone of inhibition [15]: 18.00 ± 1.00 mm; Minimum inhibitory concentration [6]: > 100 µg/mL; Minimum inhibitory concentration [7]: > 100 µg/mL |
| CCC(=NO)c1cc(OC)cc(-c2cc(OC)ccn2)n1 [NPS6, N-[1-(4,4’-dimethoxy[2,2’-bipyridin]-6-yl)propyldiene]hydroxylamine] |  |  |  |  |  |  |  |  |  |  |  |  |  |  | IC50 (cytotoxicity, MTT) [24]: 168.1 µg/mL |
| COc1cc(-c2ccccn2)nc(CO)c1SC [collismycin C] |  |  |  |  |  |  |  |  |  |  |  |  |  |  | MRSA biofilm formation [25]: inhibited MRSA biofilm formation |
| Polymyxin B [reference compound] |  |  |  |  |  |  |  |  |  |  |  |  |  |  | PI fluorescence (membrane integrity) [13]: higher fluorescence; PI fluorescence (membrane integrity) [18]: higher fluorescence |
